# Assay results: US20250129334A1, “LINEAGE SPECIFICATION DURING STEM CELL TRANSITION” (Amniotics AB, priority 2021, published 2025)
# What was measured:
# Assay type in all cases: cell-based, human
# EHT cells = assay: EHT cell subculture with metabolic regulators, flow cytometry; settings: UK5099 10 μM
# Excerpt: The RB9-CB1 human iPSC line (Woods, N.-B. et al. Brief report: efficient generation of hematopoietic precursors and progenitors from human pluripotent stem cell lines. Stem Cells 29, 1158-1164 (2011)) was co-cultured with mouse embryonic fibroblasts (MEFs, Millipore), passaged every six days and processed to form embryoid bodies (EBs) as described previously (Guibentif, C. et al. Single-Cell Analysis Identifies Distinct Stages of Human Endothelial to-Hematopoietic Transition. Cell Reports 19, 10-19 (2017)). The differentiation protocol used in this study was previously described (Ditadi, A. & Sturgeon, C. M. Directed differentiation of definitive hemogenic endothelium and hematopoietic progenitors from human pluripotent stem cells. Methods 101, 65-72 (2016)), however, small modifications were made to induce both primitive and definitive hematopoiesis, as indicated below and in FIG. 6, a. Newly-formed EBs were first kept in SFD medium supplemented with 1 ng/ml Activin A (on days 0-2) and 3 μM CHIR99021 (on day 2 only). At day 3, media was switched to “Day 3-SP34” medium supplemented with 1 ng/ml Activin A (on day 3 only) and 3 μM CHIR99021 (on day 3 only) until day 6. On day 6, media was replaced by “Day 6-SP34” medium, until day 8. In some experiments where indicated, to obtain a higher yield of HSC-like cells, EBs were kept until day 10: in this case, EBs were plated onto Matrigel (8 μg/cm2, Corning)-coated dishes on day 8 and kept until day 10. Media was changed every day, except on days 5 and 7. On day 8 or 10 (as indicated), EBs were singularized with 5-6 rounds of 5-minute incubations with TryPLE Express (Thermo Fisher Scientific). […]
# [1] = system: HBE1, HBG1-2, HBA1-2 transcripts; assay: Globin transcript q-PCR in CFU colonies; settings: normalized to KLF1, UK5099 10 μM
# Procedure: Subcultured HE cells were treated with StemPro Accutase Cell Dissociation Reagent for 2 minutes at 37° C. and dissociated cells were resuspended in 3 ml Methocult H4230 (STEMCELL Technologies, France) (prepared according to manufacturer's instructions, with 20 mL Iscove's Modified Dulbecco's Medium containing 2.5 μg hSCF, 5 μg GM-CSF, 2.5 μg IL-3 and 500 U EPO). Each mixture was divided onto 2 wells of a non-tissue culture treated 6-well plate. Following a 12-day incubation in a humidified incubator at 37° C., 5% CO2, 20% O2, colonies were morphologically distinguished and scored. For globin analysis, colonies in Methocult wells were harvested with PBS, washed thoroughly and frozen in RLT buffer with β-mercaptoethanol. Following RNA extraction and RT (Qiagen), gene expression was assessed with taqman probes by q-PCR. The taqman probes used for this assay are HBA1/2 (Hs00361191_g1), HBE1 (Hs00362216_m1), HBG2/1 (Hs00361131_g1) and KLF1 (Hs00610592_m1).
# HE cells = assay: Lymphoid (NK) differentiation assay on OP9-DL1 stroma; settings: 3-day treatment, 35-day co-culture; UK5099 10 μM, DCA 3 mM
# Procedure: Subculture day 3 HE cells cultured in the presence of UK5099 (10 μM) or DCA (3 mM or 10 mM), as indicated, were collected after a 2-minute incubation at 37° C. with StemPro Accutase Cell Dissociation Reagent and seeded onto 80% confluent OP9-DL1 stroma. Cells were cultured in OP9 medium (OptiMEM medium with Glutamax (Invitrogen) with 10% FCS, 1% penicillin-streptomycin solution (Thermo Fisher Scientific) and 1% 2-mercaptoethanol (Invitrogen)) with SCF (10 ng/ml), FLT3-L (10 ng/ml), IL-2 (5 ng/ml), IL-7 (5 ng/ml, first 15 days only) and IL-15 (10 ng/ml) with passaging onto new OP9-DL1 stroma every week, as described previously (Renoux, V. M. et al. Identification of a Human Natural Killer Cell Lineage-Restricted Progenitor in Fetal and Adult Tissues. Immunity 43, 394-407 (2015)). At day 35 of co-culture, cells were analyzed on a BD LSRFortessa.
smiles,measurement,setting,value
"N#CC(=Cc1cn(-c2ccccc2)c2ccccc12)C(=O)O [UK5099, 2-Cyano-3-(1-phenyl-1H-indol-3-yl)-2-propenoic acid]",CD43+GPA+ cell output,"EHT cells; day 3, EHT cells",absence of bias
same,decrease in CD43+CD45+ population,"EHT cells; day 6, deriving from EHT cells",2 fold
same,HBE1 (embryonic) globin transcripts,[1],significant increase
same,HBG1-2 (fetal) globin transcripts,[1],significant increase
same,HBA1-2 (adult globin) expression,[1]; DCA 3 mM,did not have an effect
same,NK cell differentiation (CD45+CD56+ cells),HE cells,impaired NK cell formation
